Source: patent publication US11173192B2 (priority 2016, dated 2021)

Columns and labels:
[1] = tested on: PR8-infected RAW264.7 cells; format: cell-based; conditions: RAW264.7 cells stably overexpressing EPRS vs empty vector
PR8 = format: cell-based, PR8 influenza A virus

## EPRS: glutamyl-prolyl-tRNA synthetase protein, 1512 aa, SEQ ID NO: 63; expressed from plasmid or purified
[1]
  IFN-β production following infection with PR8: more production of IFN-β and IL-6
  IL-6 production following infection with PR8: more production of IFN-β and IL-6
PR8
  viral replication following infection with PR8: significantly less viral replication
